Reference: article PMC9230136 (Pharmaceutics, 2022)
Read-outs that look alike come from different tables or passages of the source.

Tests used:
A549 = experiment: Antiproliferative assay (resazurin, 72 h); type: cell-based, human; conditions: Homo sapiens
Protocol: (§1) Colon adenocarcinoma (HT-29) and T-cell leukemia (Jurkat) cells were grown in RPMI-1640 medium (Gibco, Milano, Italy). Promyelocytic leukemia cells (HL-60), non-small cell lung carcinoma (A549), cervix carcinoma (HeLa) and breast adenocarcinoma (MDA-MB-231) cells were grown in DMEM medium (Gibco, Milano, Italy). Both media were supplemented with 115 units/mL of penicillin G (Gibco, Milano, Italy), 115 μg/mL of streptomycin (Invitrogen, Milano, Italy) and 10% fetal bovine serum (Invitrogen, Milano, Italy). All the cell lines used were purchased from the American Type Culture Collection (ATCC, Manassas, VA, USA). Stock solutions (10 mM) of the compounds were obtained by dissolving them in DMSO.
(§2) The cells were seeded in 96-well plates at the appropriate density for each cell line. After 24 h, the cells were treated by performing serial 5-fold dilutions of the tested compounds starting from a concentration of 10 μM. All experimental conditions were tested in triplicate for statistical analysis. The plates were incubated for 72 h at 37 °C in a humidified 5% CO2 atmosphere. At the end of the incubation period, 10 μL of 100 μg/mL resazurin solution was added to each well; then, the plate was re-incubated for 3–4 h. The fluorescence of the wells in each plate was monitored using a Spark 10 M spectrophotometer (Tecan Group Ltd., Mannedorf, Switzerland) with a 535 nm excitation wavelength and a 600 nm emission wavelength.

HT-29 = experiment: Antiproliferative assay (resazurin, 72 h); type: cell-based, human; conditions: Homo sapiens, HT-29, mean ± SE, 72 h
Protocol: as §1, §2

HeLa = experiment: Antiproliferative assay (resazurin, 72 h); type: cell-based, human; conditions: Homo sapiens, HeLa
Protocol: as §1, §2

Jurkat = experiment: Antiproliferative assay (resazurin, 72 h); type: cell-based, human; conditions: Homo sapiens, Jurkat, mean ± SE, 72 h
Protocol: as §1, §2

MDA-MB-231 = experiment: Antiproliferative assay (resazurin, 72 h); type: cell-based, human; conditions: for IC50: Homo sapiens, MDA-MB-231
Protocol: as §1, §2

[1] = test system: A549, MDA-MB-231, HeLa, HT-29 and Jurkat cancer cell lines; experiment: Antiproliferative activity over the panel of cancer cell lines; type: cell-based, human; conditions: for IC50: Homo sapiens
Protocol: as §1, §2

[2] = read-out: IC50 values (2-para-substituted phenyl derivatives)
[3] = four of the five cell lines, read-out: IC50 values against four of the five cell lines

Row | Compound | IC50 (A549; A549, Table 1, mean ± SE) [nM] | IC50 (HT-29; Table 1) [nM] | IC50 (HeLa; Table 1, mean ± SE) [nM] | IC50 (Jurkat; Table 1) [nM] | IC50 (MDA-MB-231; Table 1, mean ± SE, 72 h) [nM] | melting point [°C] | IC50 (A549; A549, Table 2, mean ± SE) [nM] | IC50 (HT-29; Table 2) [nM] | IC50 (HeLa; Table 2, mean ± SE) [nM] | IC50 (Jurkat; Table 2) [nM] | IC50 (MDA-MB-231; Table 2, mean ± SE, 72 h) [nM] | other results
1 | COc1cc(Nc2cc(C)nc3nc(-c4ccc(F)cc4)nn23)cc(OC)c1OC [Compound 7a, 2-(4-Fluorophenyl)-5-methyl-N-(3,4,5-trimethoxyphenyl)-[1,2,4]triazolo [1,5-a]pyrimidin-7-amine] | 2710 ± 250 | > 10000 | 3760 ± 190 | 3570 ± 450 | 2250 ± 190 | 253 |  |  |  |  |  | IC50 [1, 2]: < 2000 nM
2 | COc1cc(Nc2cc(C)nc3nc(-c4ccc(Cl)cc4)nn23)cc(OC)c1OC [Compound 7b, 2-(4-Chlorophenyl)-5-methyl-N-(3,4,5-trimethoxyphenyl)-[1,2,4]triazolo [1,5-a]pyrimidin-7-amine] | > 10000 | > 10000 | 5790 ± 420 | > 10000 | > 10000 | 260 |  |  |  |  |  | IC50 [1, 2]: < 2000 nM
3 | COc1cc(Nc2cc(C)nc3nc(-c4ccc(C)cc4)nn23)cc(OC)c1OC [Compound 7c, 5-Methyl-2-(p-tolyl)-N-(3,4,5-trimethoxyphenyl)-[1,2,4]triazolo [1,5-a]pyrimidin-7-amine] | > 10000 | > 10000 | 2080 ± 190 | 4230 ± 1150 | 2600 ± 270 | 248 |  |  |  |  |  | IC50 [1, 2]: < 2000 nM
4 | COc1cc(Nc2cc(C)nc3nc(Nc4ccc(Cl)cc4)nn23)cc(OC)c1OC [Compound 7f, N2-(4-Chlorophenyl)-5-methyl-N7-(3,4,5-trimethoxyphenyl)-[1,2,4]triazolo [1,5-a]pyrimidine-2,7-diamine] | 290 ± 30 | 320 ± 40 | 92 ± 10 | > 10000 | 470 ± 45 | 251 |  |  |  |  |  | IC50 [1, 3]: < 1000 nM
5 | COc1cc(Nc2cc(C)nc3nc(NCc4ccc(F)cc4)nn23)cc(OC)c1OC [Compound 7l, N^2-(4-Fluorobenzyl)-5-methyl-N^7-(3,4,5-trimethoxyphenyl)-[1,2,4]triazolo [1,5-a]pyrimidine-2,7-diamine] | 5890 ± 480 | 1140 ± 90 | 1860 ± 130 | 4680 ± 480 | 61 ± 9 | 156 to 158 |  |  |  |  |  | fold more potent than 7e (MDA-MB-231; MDA-MB-231 cells): 12 fold; fold less active than 7e ([1]; in four lines): 2-6 fold
6 | COc1cc(Nc2cc(C)nc3nc(NCc4cccc(Cl)c4)nn23)cc(OC)c1OC [Compound 7o, N^2-(3-Chlorobenzyl)-5-methyl-N^7-(3,4,5-trimethoxyphenyl)-[1,2,4]triazolo [1,5-a]pyrimidine-2,7-diamine] | 930 ± 110 | 790 ± 90 | 740 ± 80 | 4720 ± 360 | 60 ± 7 | 136 to 138 |  |  |  |  |  | fold increase in potency vs 7n (MDA-MB-231; MDA-MB-231 cells): 3 fold; IC50 [1, 3]: < 1000 nM; fold reduction in activity vs 7n ([1]; four of the five cancer cell lines): 9-24 fold
7 | COc1ccc(CNc2nc3nc(C)cc(Nc4cc(OC)c(OC)c(OC)c4)n3n2)cc1 [Compound 7s, N^2-(4-Methoxybenzyl)-5-methyl-N^7-(3,4,5-trimethoxyphenyl)-[1,2,4]triazolo [1,5-a]pyrimidine-2,7-diamine] | 810 ± 80 | 490 ± 60 | 220 ± 30 | 900 ± 90 | 1270 ± 120 | 182 to 184 |  |  |  |  |  | IC50 (MDA-MB-231): 1300 nM; IC50 ([1]; MDA-MB-231, against four of the five cell lines (not MDA-MB-231), read-out: IC50 values, range): 217 to 900 nM; IC50 [1, 3]: < 1000 nM; fold reduction in antiproliferative activity vs 7p ([1]; all five lines): 2–5 fold
8 | COc1cc(Nc2cc(C)nc3nc(NCc4ccc(C(F)(F)F)cc4)nn23)cc(OC)c1OC [Compound 7w, 5-Methyl-N^2-(4-(trifluoromethyl)benzyl)-N^7-(3,4,5-trimethoxyphenyl)-[1,2,4]triazolo [1,5-a]pyrimidine-2,7-diamine] | 1280 ± 130 | 590 ± 260 | 520 ± 20 | 960 ± 60 | 560 ± 30 | 174 to 176 |  |  |  |  |  | IC50 [1, 3]: < 1000 nM

Now from value to molecule, other results behind:

Row | IC50 (A549; A549, Table 1, mean ± SE) [nM] | IC50 (HT-29; Table 1) [nM] | IC50 (HeLa; Table 1, mean ± SE) [nM] | IC50 (Jurkat; Table 1) [nM] | IC50 (MDA-MB-231; Table 1, mean ± SE, 72 h) [nM] | melting point [°C] | IC50 (A549; A549, Table 2, mean ± SE) [nM] | IC50 (HT-29; Table 2) [nM] | IC50 (HeLa; Table 2, mean ± SE) [nM] | IC50 (Jurkat; Table 2) [nM] | IC50 (MDA-MB-231; Table 2, mean ± SE, 72 h) [nM] | Compound | other results
9 |  |  |  |  |  | 190 to 192 | 610 ± 200 | 490 ± 60 | 420 ± 50 | 500 ± 60 | 1710 ± 60 | C#Cc1cccc(Nc2cc(C)nc3nc(NCc4ccc(Cl)cc4)nn23)c1 [Compound 8c, N^7-(3-Ethynylphenyl)-N^2-(4-chlorobenzyl)-5-methyl-[1,2,4]triazolo [1,5-a]pyrimidine-2,7-diamine] | 
10 |  |  |  |  |  | 178 to 180 | 300 ± 60 | 220 ± 40 | 190 ± 60 | 290 ± 60 | 800 ± 260 | Cc1ccc(CNc2nc3nc(C)cc(Nc4ccc(F)c(Cl)c4)n3n2)cc1 [Compound 8d, N^7-(3-Chloro-4-fluorophenyl)-N^2-(4-methylbenzyl)-5-methyl-[1,2,4]triazolo [1,5-a]pyrimidine-2,7-diamine] | fold reduction in activity vs 7p ([1]; all cell lines): 1.5–3 fold
11 |  |  |  |  |  | 166 to 168 | 1640 ± 370 | 830 ± 3 | 680 ± 260 | 630 ± 140 | 2760 ± 550 | Cc1ccc(CNc2nc3nc(C)cc(Nc4cccc(Cl)c4)n3n2)cc1 [Compound 8e, N^7-(3-Chlorophenyl)-N^2-(4-methylbenzyl)-5-methyl-[1,2,4]triazolo [1,5-a]pyrimidine-2,7-diamine] | 
12 |  |  |  |  |  | 174 to 176 | 2440 ± 130 | 9110 ± 930 | 5880 ± 2960 | 5980 ± 1580 | 9250 ± 120 | Cc1cc(Nc2cccc(F)c2)n2nc(NCc3ccc4c(c3)OCO4)nc2n1 [Compound 8h, N^2-(Benzo[d][1,3]dioxol-5-ylmethyl)-N^7-(3-fluorophenyl)-5-methyl-[1,2,4]triazolo [1,5-a]pyrimidine-2,7-diamine] | 
13 |  |  |  |  |  | 164 to 166 | 2170 ± 10 | 2660 ± 660 | 960 ± 460 | 1660 ± 480 | 4820 ± 1910 | Cc1cc(Nc2cccc(Cl)c2)n2nc(NCc3ccc4c(c3)OCO4)nc2n1 [Compound 8j, N^2-(Benzo[d][1,3]dioxol-5-ylmethyl)-N^7-(3-chlorophenyl)-5-methyl-[1,2,4]triazolo [1,5-a]pyrimidine-2,7-diamine] | 
14 |  |  |  |  |  | 166 to 168 | 2360 ± 340 | 1380 ± 60 | 720 ± 340 | 950 ± 120 | 2040 ± 1030 | Cc1cc(Nc2ccc(Cl)c(Cl)c2)n2nc(NCc3ccc4c(c3)OCO4)nc2n1 [Compound 8k, N^2-(Benzo[d][1,3]dioxol-5-ylmethyl)-N^7-(3,4-dichlorophenyl)-5-methyl-[1,2,4]triazolo [1,5-a]pyrimidine-2,7-diamine] | 
15 |  |  |  |  |  | 150 to 152 | 2320 ± 230 | 2240 ± 120 | 1280 ± 300 | 1180 ± 110 | 3990 ± 60 | Cc1cc(Nc2cccc(Br)c2)n2nc(NCc3ccc4c(c3)OCO4)nc2n1 [Compound 8m, N^2-(Benzo[d][1,3]dioxol-5-ylmethyl)-N^7-(3-bromophenyl)-5-methyl-[1,2,4]triazolo [1,5-a]pyrimidine-2,7-diamine] | 
16 |  |  |  |  |  | 158 to 160 | 3270 ± 570 | 5180 ± 270 | 3640 ± 1010 | 1600 ± 290 | 6130 ± 1460 | Cc1cc(Nc2ccc(C(F)(F)F)cc2)n2nc(NCc3ccc4c(c3)OCO4)nc2n1 [Compound 8n, N^2-(Benzo[d][1,3]dioxol-5-ylmethyl)-N^7-(4-trifluoromethylphenyl)-5-methyl-[1,2,4]triazolo [1,5-a]pyrimidine-2,7-diamine] | 
17 |  |  |  |  |  | 180 to 182 | 6260 ± 2020 | 7130 ± 870 | 7150 ± 600 | 7600 ± 60 | 9820 ± 860 | Cc1cc(Nc2cccc(C(F)(F)F)c2)n2nc(NCc3ccc4c(c3)OCO4)nc2n1 [Compound 8o, N^2-(Benzo[d][1,3]dioxol-5-ylmethyl)-N^7-(3-trifluoromethylphenyl)-5-methyl-[1,2,4]triazolo [1,5-a]pyrimidine-2,7-diamine] | 
18 |  |  |  |  |  | 165 to 168 | 1780 ± 510 | 2080 ± 140 | 1600 ± 70 | 2380 ± 180 | 3090 ± 570 | C#Cc1cccc(Nc2cc(C)nc3nc(NCc4ccc5c(c4)OCO5)nn23)c1 [Compound 8p, N^2-(Benzo[d][1,3]dioxol-5-ylmethyl)-N^7-(3-ethynylphenyl)-5-methyl-[1,2,4]triazolo [1,5-a]pyrimidine-2,7-diamine] | 
